In US11078170B2 (Assembly Biosciences, Inc., priority 2017, dated 2021) one finds EC50 data, which are given here for 30 compounds.

SMILES strings stand for the structures. Where only a bound is given, the exact number is not on record here.

The test system of the test is HBV viral production from HepAD38 cells. In words: Activity of test compounds on viral production from HepAD38 cells (viral load by qPCR of HBV core sequence in supernatant). The format is cell-based. Conditions: Hepatitis B virus, 120 h, 5 days incubation, HBV DNA in supernatant by qPCR, top concentration 10 μM, read-out: Viral Load EC50 Activity range. An outline of the steps: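 HepAD38 cells, 50,000/well in tetracycline-free 2% FBS medium, treated 5 days at 37° C. with compound from 10 μM top concentration. HBV DNA in supernatant quantified by TaqMan qPCR of core sequence against DNA standards, relative to DMSO wells; CellTiter-Glo viability read in parallel. EC50/CC50 from four-parameter logistic fit.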
In general terms: In qPCR the cycle at which signal appears reflects the starting amount.
For the compound `CN(C)CCN1[C@H](c2cccs2)C[C@H](C(=O)Nc2ccc(F)c(Cl)c2)N(C)S1(=O)=O` [HBV-CSU-043-ISO-II, Cis-N-(3-chloro-4-fluorophenyl)-6-(2-(dimethylamino)ethyl)-2-methyl-5-(thiophen-2-yl)-1,2,6-thiadiazinane-3-carboxamide 1,1-dioxide], the EC50 was more than 5000 nM.

`COCCN1[C@H](c2cccs2)C[C@H](C(=O)Nc2ccc(F)c(Cl)c2)NS1(=O)=O` [HBV-CSU-044-ISO-I, Cis-N-(3-Chloro-4-fluorophenyl)-6-(2-methoxyethyl)-5-(thiophen-2-yl)-1,2,6-thiadiazinane-3-carboxamide 1,1-dioxide]: the concentration for a half-maximal effect (EC50) was more than 5000 nM.

Turning to `COCCN1[C@@H](c2cccs2)C[C@@H](C(=O)Nc2ccc(F)c(Cl)c2)NS1(=O)=O` [HBV-CSU-044-ISO-II, Cis-N-(3-Chloro-4-fluorophenyl)-6-(2-methoxyethyl)-5-(thiophen-2-yl)-1,2,6-thiadiazinane-3-carboxamide 1,1-dioxide], the EC50 is more than 5000 nM.

In the case of `CN1[C@H](C(=O)Nc2ccc(F)c(C#N)c2)C[C@H](c2cccs2)NS1(=O)=O` [HBV-CSU-045-ISO-I, Cis-N-(3-cyano-4-fluorophenyl)-2-methyl-5-(thiophen-2-yl)-1,2,6-thiadiazinane-3-carboxamide 1,1-dioxide], the EC50 is less than 1000 nM.

Consider `CN1[C@H](C(=O)Nc2ccc(F)c(C(F)(F)F)c2)C[C@H](c2cccs2)NS1(=O)=O` [HBV-CSU-046-ISO-I, Cis-N-(4-Fluoro-3-(trifluoromethyl)phenyl)-2-methyl-5-(thiophen-2-yl)-1,2,6-thiadiazinane-3-carboxamide 1,1-dioxide], for which the EC50 was less than 1000 nM.

With `CN1[C@H](C(=O)Nc2cc(Cl)cc(Cl)c2)C[C@H](c2cccs2)NS1(=O)=O` [HBV-CSU-047-ISO-I, Cis-N-(3,5-Dichlorophenyl)-2-methyl-5-(thiophen-2-yl)-1,2,6-thiadiazinane-3-carboxamide 1,1-dioxide], the half-maximal effective concentration (EC50) is less than 1000 nM.

`CN1[C@H](C(=O)Nc2cc(Br)cc(Br)c2)C[C@H](c2cccs2)NS1(=O)=O` [HBV-CSU-048-ISO-I, Cis-N-(3,5-Dibromophenyl)-2-methyl-5-(thiophen-2-yl)-1,2,6-thiadiazinane-3-carboxamide 1,1-dioxide]: the EC50 was less than 1000 nM.

Turning to `CN1[C@H](C(=O)Nc2cc(F)c(F)c(Br)c2)C[C@H](c2cccs2)NS1(=O)=O` [HBV-CSU-049-ISO-I, Cis-N-(3-Bromo-4,5-difluorophenyl)-2-methyl-5-(thiophen-2-yl)-1,2,6-thiadiazinane-3-carboxamide 1,1-dioxide], the EC50 was less than 1000 nM.

In the case of `C[C@H]1C[C@@H](C(=O)Nc2ccc(F)c(Cl)c2)N(C)S(=O)(=O)N1` [HBV-CSU-050-ISO-I, Cis-N-(3-chloro-4-fluorophenyl)-2,5-dimethyl-1,2,6-thiadiazinane-3-carboxamide 1,1-dioxide], the EC50 lay in the range of 1000 to 5000 nM.

As to `C[C@@H]1C[C@H](C(=O)Nc2ccc(F)c(Cl)c2)N(C)S(=O)(=O)N1` [HBV-CSU-050-ISO-II, Cis-N-(3-chloro-4-fluorophenyl)-2,5-dimethyl-1,2,6-thiadiazinane-3-carboxamide 1,1-dioxide], the half-maximal effective concentration (EC50) was more than 5000 nM.

For the compound `CN1[C@@H](C(=O)Nc2ccc(F)c(Cl)c2)C[C@@H](c2ccnn2C)NS1(=O)=O` [HBV-CSU-054-ISO-I, Cis-N-(3-Chloro-4-fluorophenyl)-2-methyl-5-(1-methyl-1H-pyrazol-5-yl)-1,2,6-thiadiazinane-3-carboxamide 1,1-dioxide], the EC50 was more than 5000 nM.

Consider `CN1[C@H](C(=O)Nc2ccc(F)c(Cl)c2)C[C@H](c2ccnn2C)NS1(=O)=O` [HBV-CSU-054-ISO-II, Cis-N-(3-Chloro-4-fluorophenyl)-2-methyl-5-(1-methyl-1H-pyrazol-5-yl)-1,2,6-thiadiazinane-3-carboxamide 1,1-dioxide], for which the EC50 lay within 1000 to 5000 nM.

For the compound `CN1[C@H](C(=O)Nc2ccc(F)c(Cl)c2)C[C@H](c2ccon2)NS1(=O)=O` [HBV-CSU-055-ISO-I, Cis-N-(3-chloro-4-fluorophenyl)-5-(isoxazol-3-yl)-2-methyl-1,2,6-thiadiazinane-3-carboxamide 1,1-dioxide], the EC50 is less than 1000 nM.

As for `CN1[C@@H](C(=O)Nc2ccc(F)c(Cl)c2)C[C@@H](c2ccon2)NS1(=O)=O` [HBV-CSU-055-ISO-II, Cis-N-(3-chloro-4-fluorophenyl)-5-(isoxazol-3-yl)-2-methyl-1,2,6-thiadiazinane-3-carboxamide 1,1-dioxide], the EC50 was more than 5000 nM.

As to `CN1[C@H](C(=O)Nc2ccc(F)c(Cl)c2)C[C@H](c2ccsn2)NS1(=O)=O` [HBV-CSU-056-ISO-I, Cis-N-(3-chloro-4-fluorophenyl)-5-(isothiazol-3-yl)-2-methyl-1,2,6-thiadiazinane-3-carboxamide 1,1-dioxide], the EC50 is less than 1000 nM.

As to `CN1C(C(=O)Nc2ccc(F)c(Cl)c2)CC(c2ccns2)NS1(=O)=O` (stereo not drawn) [HBV-CSU-057, Cis-N-(3-chloro-4-fluorophenyl)-5-(isothiazol-5-yl)-2-methyl-1,2,6-thiadiazinane-3-carboxamide 1,1-dioxide], the EC50 was less than 1000 nM.

In the case of `COCCN1[C@@H](C(=O)Nc2ccc(F)c(Cl)c2)C[C@@H](c2nccs2)NS1(=O)=O` [HBV-CSU-058-ISO-I, Cis-N-(3-chloro-4-fluorophenyl)-2-(2-methoxyethyl)-5-(thiazol-2-yl)-1,2,6-thiadiazinane-3-carboxamide 1,1-dioxide], the concentration giving a half-maximal response (EC50) was more than 5000 nM.

For `COCCN1[C@H](C(=O)Nc2ccc(F)c(Cl)c2)C[C@H](c2nccs2)NS1(=O)=O` [HBV-CSU-058-ISO-II, Cis-N-(3-chloro-4-fluorophenyl)-2-(2-methoxyethyl)-5-(thiazol-2-yl)-1,2,6-thiadiazinane-3-carboxamide 1,1-dioxide], the EC50 was less than 1000 nM.

On to `COCCN1[C@@H](C(=O)Nc2ccc(F)c(Br)c2)C[C@@H](c2nccs2)NS1(=O)=O` [HBV-CSU-059-ISO-I, Cis-N-(3-bromo-4-fluorophenyl)-2-(2-methoxyethyl)-5-(thiazol-2-yl)-1,2,6-thiadiazinane-3-carboxamide 1,1-dioxide], for which the EC50 is more than 5000 nM.

On to `COCCN1[C@H](C(=O)Nc2ccc(F)c(Br)c2)C[C@H](c2nccs2)NS1(=O)=O` [HBV-CSU-059-ISO-II, Cis-N-(3-bromo-4-fluorophenyl)-2-(2-methoxyethyl)-5-(thiazol-2-yl)-1,2,6-thiadiazinane-3-carboxamide 1,1-dioxide], for which the EC50 is less than 1000 nM.

As to `CN1[C@@H](C(=O)Nc2ccc(F)c(Br)c2)C[C@@H](c2nccs2)NS1(=O)=O` [HBV-CSU-060-ISO-I, Cis-N-(3-bromo-4-fluorophenyl)-2-methyl-5-(thiazol-2-yl)-1,2,6-thiadiazinane-3-carboxamide 1,1-dioxide], the EC50 is more than 5000 nM.

Turning to `CN1[C@H](C(=O)Nc2ccc(F)c(Br)c2)C[C@H](c2nccs2)NS1(=O)=O` [HBV-CSU-060-ISO-II, Cis-N-(3-bromo-4-fluorophenyl)-2-methyl-5-(thiazol-2-yl)-1,2,6-thiadiazinane-3-carboxamide 1,1-dioxide], the EC50 is less than 1000 nM.

For the compound `COCCN1C(c2cccs2)CC(C(=O)Nc2ccc(F)c(Cl)c2)N(C)S1(=O)=O` (stereo not drawn) [HBV-CSU-064, Cis-N-(3-Chloro-4-fluorophenyl)-6-(2-methoxyethyl)-2-methyl-5-(thiophen-2-yl)-1,2,6-thiadiazinane-3-carboxamide 1,1-dioxide], the concentration for a half-maximal effect (EC50) was more than 5000 nM.

Regarding `CC(C)(C)OCCN1[C@H](C(=O)Nc2ccc(F)c(Cl)c2)C[C@H](c2nccs2)NS1(=O)=O` [HBV-CSU-071-ISO-I, Cis-2-(2-(tert-Butoxy)ethyl)-N-(3-chloro-4-fluorophenyl)-5-(thiazol-2-yl)-1,2,6-thiadiazinane-3-carboxamide 1,1-dioxide], the EC50 was less than 1000 nM.

`O=C(Nc1ccc(F)c(Cl)c1)[C@H]1C[C@@H](c2nccs2)NS(=O)(=O)N1CCOC(F)(F)F` [HBV-CSU-072-ISO-I, Cis-N-(3-Chloro-4-fluorophenyl)-5-(thiazol-2-yl)-2-(2-(trifluoromethoxy)ethyl)-1,2,6-thiadiazinane-3-carboxamide 1,1-dioxide]: the EC50 was more than 5000 nM.

As to `O=C(Nc1ccc(F)c(Cl)c1)[C@@H]1C[C@H](c2nccs2)NS(=O)(=O)N1CCOC(F)(F)F` [HBV-CSU-072-ISO-II, Cis-N-(3-Chloro-4-fluorophenyl)-5-(thiazol-2-yl)-2-(2-(trifluoromethoxy)ethyl)-1,2,6-thiadiazinane-3-carboxamide 1,1-dioxide], the EC50 is less than 1000 nM.

With `COCCCN1[C@@H](C(=O)Nc2ccc(F)c(Cl)c2)C[C@@H](c2nccs2)NS1(=O)=O` [HBV-CSU-077-ISO-I, Cis-N-(3-Chloro-4-fluorophenyl)-2-(3-methoxypropyl)-5-(thiazol-2-yl)-1,2,6-thiadiazinane-3-carboxamide 1,1-dioxide], the EC50 was more than 5000 nM.

Regarding `COCCCN1[C@H](C(=O)Nc2ccc(F)c(Cl)c2)C[C@H](c2nccs2)NS1(=O)=O` [HBV-CSU-077-ISO-II, Cis-N-(3-Chloro-4-fluorophenyl)-2-(3-methoxypropyl)-5-(thiazol-2-yl)-1,2,6-thiadiazinane-3-carboxamide 1,1-dioxide], the EC50 is less than 1000 nM.

Consider `O=C(Nc1ccc(F)c(Cl)c1)[C@@H]1C[C@H](c2nccs2)NS(=O)(=O)N1CCCO` [HBV-CSU-078-ISO-I, Cis-N-(3-Chloro-4-fluorophenyl)-2-(3-hydroxypropyl)-5-(thiazol-2-yl)-1,2,6-thiadiazinane-3-carboxamide 1,1-dioxide], for which the EC50 was less than 1000 nM.

`O=C(Nc1ccc(F)c(Cl)c1)[C@H]1C[C@@H](c2nccs2)NS(=O)(=O)N1CCCO` [HBV-CSU-078-ISO-II, Cis-N-(3-Chloro-4-fluorophenyl)-2-(3-hydroxypropyl)-5-(thiazol-2-yl)-1,2,6-thiadiazinane-3-carboxamide 1,1-dioxide]: the EC50 was more than 5000 nM.

Usually EC50 stands for the concentration needed to bring the measured effect to its halfway point.
